Measured values published in ChEMBL document CHEMBL1158879, “Preparation of 7-Alkoxylated Furanopyrones: Semisynthesis of ()-Etharvensin, a New Styryl-Lactone from Goniothalamus arvensis” (J Nat Prod, 1997).
Active and inactive are the calls of the source. The rule behind the calls is not given here.

Experiments:
Aorta [1] = assay: Inhibition of noradrenaline-induced contractile response in rat aorta at 100 uM in presence of calcium; format: functional, tissue-based
Aorta [2] = assay: Inhibition of noradrenaline-induced contractile response in rat aorta in absence of calcium; format: functional, tissue-based

SMILES | Activity (Aorta [1]) | IC50 (Aorta [2])
CCO[C@@H]1CC(=O)O[C@H]2[C@H](O)[C@@H](c3ccccc3)O[C@H]21 | inactive | –
O=C1C=C[C@@H]2O[C@H](c3ccccc3)[C@@H](O)[C@@H]2O1 [ALTHOLACTONE] | inactive | 78 µM
O=C1CC[C@@H]2O[C@H](c3ccccc3)[C@@H](O)[C@@H]2O1 [GONIOTHARVENSIN] | inactive | 80 µM
